Laboratory results: US20260007681A1, “INDOLE DERIVATIVES AS ESTROGEN RECEPTOR DEGRADERS” (REGENTS OF THE UNIVERSITY OF MICHIGAN, priority 2022, published 2026)
Like-named read-outs stand apart in the source and are kept apart here.

Key:
CRBN/DDB1 = CRBN/DDB1 (Homo sapiens (Human), UniProt Q96SW2); format: binding; conditions: His tagged CRBN+DDB-DLS7+CXU4, Cy5-labeled Thalidomide probe, one hour incubation; read-out: CRBN HTRF IC50
Description: The binding potency was determined using H-TRF assay technology (Perkin Elmer). Compounds were serially diluted in DMSO and 0.2 μL volume was transferred to white 384-well plate.

ERα_LBD(GST) = ERα_LBD(GST) (Homo sapiens (Human), UniProt P03372); test: IC50 measurements for binding to ERα_LBD (GST), LanthaScreen TR-FRET ERα competitive binding assay; conditions: 4 nM ERα_LBD(GST), 3 nM Fluormone ES2 Green tracer, 60 min; read-out: ERα HTRF IC50
Chain of ERα_LBD(GST) (P03372 311-547): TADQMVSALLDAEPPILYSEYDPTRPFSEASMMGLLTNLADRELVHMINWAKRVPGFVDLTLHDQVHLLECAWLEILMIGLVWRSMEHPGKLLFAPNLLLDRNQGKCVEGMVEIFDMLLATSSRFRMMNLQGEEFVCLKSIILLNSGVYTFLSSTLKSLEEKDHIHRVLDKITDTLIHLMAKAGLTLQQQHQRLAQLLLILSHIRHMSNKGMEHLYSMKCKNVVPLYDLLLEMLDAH
Description: • 1. ERα_LBD(GST) protein: 4 nM • 2. Tb Anti-GST: 2 nM • 3. Fluormone ES2 Green tracer: 3 nM • 4. Incubation time: 60 min • 5. DMSO: 1% • 6. Assay buffer: Adding 1M DTT to Nuclear receptor Buffer K for final 5 mM DTT. • 7. ZPE: 1% DMSO • 8. HPE: 1 μM ARV_471 • 9. LanthaScreen® TR-FRET ERα Competitive Binding Assay (ThermoFisher, #A15887)
• 1) Cherry pick 2 μL 10 mM compound stock to column 1 of a 384 intermediate plate • 2) Add 18 μL DMSO to column 1 to dilute compound to 1 mM. • 3) Transfer 10 μL 1 mM compound to column 1 of a LDV plate. • 4) Add 6 μl DMSO to column 2-10 of the LDV plate. • 5) Compounds undergo 3-fold serial dilution (3 μL+6 μL) in DMSO. • 6) Transfer 120 nL compound solution to assay plate. • ZPE: 120 nL 100% DMSO
Prepare complete nuclear receptor buffer K by adding 1 M DTT to nuclear receptor buffer K for a final concentration of 5 mM DTT. Complete nuclear receptor buffer K must be prepared fresh daily. Prepare 2X protein solution using complete nuclear receptor buffer K containing 8 nM ERα_LBD(GST) and 4 nM Tb Anti-GST. Then, prepare 2× Fluormone ES2 Green tracer (6 nM) using complete nuclear receptor buffer K. Add 6 μL 2× Fluormone ES2 green tracer into a compound plate (PerkinElmer 6008289) by dragonfly with one-tips-addition. Subsequently, add 6 μL 2× protein solution into the plate. Briefly and gently mix the 384-well plate on a plate shaker and incubate at room temperature protected from light for 60 min. The plate is sealed with a cover to minimize evaporation. Read the plate at wavelengths of 520 nm and 495 nm. Calculate the TR-FRET ratio by dividing the emission signal at 520 nm by the emission signal at 495 nm. Generate a binding curve by plotting the emission ratio vs. the log [ligand]. To determine the IC50 value, fit the data using XL-fit for a sigmoidal dose-response.

ER in T47D cells = ER in T47D cells (Homo sapiens (Human), UniProt P03372); test: In-cell western (ICW) ER degradation assay in T47D cells (Compounds A1-A70); format: cell-based; conditions: T47D cells, 16 hrs treatment; for DC50: ER degradation, 0.02 to 300 nM; for Dmax: read-out: T47D ICW Dmax (%)
Chain of ER in T47D cells (P03372 whole entry): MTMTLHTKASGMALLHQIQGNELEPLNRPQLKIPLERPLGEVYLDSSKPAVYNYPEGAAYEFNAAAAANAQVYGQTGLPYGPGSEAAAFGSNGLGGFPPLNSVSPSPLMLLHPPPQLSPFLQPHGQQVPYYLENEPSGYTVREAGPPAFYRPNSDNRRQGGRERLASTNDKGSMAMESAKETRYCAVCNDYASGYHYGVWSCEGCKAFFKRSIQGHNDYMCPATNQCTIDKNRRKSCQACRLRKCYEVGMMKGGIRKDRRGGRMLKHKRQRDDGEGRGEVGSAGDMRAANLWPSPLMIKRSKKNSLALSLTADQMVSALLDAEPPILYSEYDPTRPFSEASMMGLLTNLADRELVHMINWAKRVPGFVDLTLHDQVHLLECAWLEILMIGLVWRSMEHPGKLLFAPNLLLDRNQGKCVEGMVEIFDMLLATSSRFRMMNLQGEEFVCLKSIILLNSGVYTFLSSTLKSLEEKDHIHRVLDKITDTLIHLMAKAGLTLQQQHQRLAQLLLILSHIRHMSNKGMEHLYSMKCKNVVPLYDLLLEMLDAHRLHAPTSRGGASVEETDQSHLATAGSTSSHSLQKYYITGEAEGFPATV

ER in MCF-7 cells = ER in MCF-7 cells (Homo sapiens (Human), UniProt P03372); test: In-cell western (ICW) ER degradation assay in MCF-7 cells (Compounds A1-A70); format: cell-based; conditions: MCF-7 cells, 16 hrs treatment; for DC50: ER degradation, 0.02 to 300 nM, read-out: MCF7 ICW DC50; for MCF7 ICW Dmax (%): maximal ER degradation; for Dmax: MCF7, maximal ER degradation, read-out: MCF7 ICW Dmax (%)
Chain of ER in MCF-7 cells (P03372 whole entry): as above

Chain of CRBN/DDB1 (Q96SW2 whole entry): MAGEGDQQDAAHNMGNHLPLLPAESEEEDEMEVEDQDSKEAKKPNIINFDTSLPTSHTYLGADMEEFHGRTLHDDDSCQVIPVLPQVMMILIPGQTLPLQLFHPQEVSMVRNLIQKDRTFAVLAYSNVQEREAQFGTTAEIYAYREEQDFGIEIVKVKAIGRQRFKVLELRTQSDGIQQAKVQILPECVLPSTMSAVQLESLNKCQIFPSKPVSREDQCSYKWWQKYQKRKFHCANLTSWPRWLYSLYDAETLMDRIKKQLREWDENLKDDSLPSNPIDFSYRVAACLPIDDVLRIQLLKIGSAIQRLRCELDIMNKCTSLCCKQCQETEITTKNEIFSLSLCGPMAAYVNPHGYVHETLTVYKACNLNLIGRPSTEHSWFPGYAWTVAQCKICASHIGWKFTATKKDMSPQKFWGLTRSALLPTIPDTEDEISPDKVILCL
Chain of CRBN/DDB1 (Q16531 whole entry partner): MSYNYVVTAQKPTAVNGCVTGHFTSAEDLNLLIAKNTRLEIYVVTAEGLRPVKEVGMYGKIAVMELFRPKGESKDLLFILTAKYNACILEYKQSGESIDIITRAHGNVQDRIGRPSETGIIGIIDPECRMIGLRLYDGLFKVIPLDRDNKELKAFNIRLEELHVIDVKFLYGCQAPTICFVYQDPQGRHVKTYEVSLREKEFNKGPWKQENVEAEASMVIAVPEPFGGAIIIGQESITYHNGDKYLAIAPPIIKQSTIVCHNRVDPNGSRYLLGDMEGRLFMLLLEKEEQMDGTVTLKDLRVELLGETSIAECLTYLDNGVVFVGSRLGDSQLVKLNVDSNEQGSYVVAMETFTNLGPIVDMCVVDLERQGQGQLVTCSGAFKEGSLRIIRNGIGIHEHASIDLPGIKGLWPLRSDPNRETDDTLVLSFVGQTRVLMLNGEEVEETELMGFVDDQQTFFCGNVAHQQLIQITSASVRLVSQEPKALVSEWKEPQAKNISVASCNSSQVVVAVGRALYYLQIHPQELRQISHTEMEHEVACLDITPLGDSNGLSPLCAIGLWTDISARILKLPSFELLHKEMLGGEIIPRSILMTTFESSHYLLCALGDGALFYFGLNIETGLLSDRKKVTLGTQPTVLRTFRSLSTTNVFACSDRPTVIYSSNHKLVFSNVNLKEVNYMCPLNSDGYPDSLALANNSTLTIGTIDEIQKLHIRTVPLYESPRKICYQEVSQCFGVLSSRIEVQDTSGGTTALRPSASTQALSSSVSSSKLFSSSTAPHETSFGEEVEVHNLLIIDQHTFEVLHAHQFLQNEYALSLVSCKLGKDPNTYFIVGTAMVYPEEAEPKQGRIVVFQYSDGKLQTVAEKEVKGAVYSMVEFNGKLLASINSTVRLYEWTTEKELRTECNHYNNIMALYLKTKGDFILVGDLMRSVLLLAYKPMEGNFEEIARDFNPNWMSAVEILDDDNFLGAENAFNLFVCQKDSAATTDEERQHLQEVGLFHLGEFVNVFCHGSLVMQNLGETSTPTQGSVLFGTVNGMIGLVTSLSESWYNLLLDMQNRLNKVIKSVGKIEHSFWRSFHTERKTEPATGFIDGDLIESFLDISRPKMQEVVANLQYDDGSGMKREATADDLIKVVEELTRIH

COc1cc(N2CCC(CN3CCN4c5cc6c(cc5OC[C@@H]4C3)C(=O)N([C@H]3CCC(=O)NC3=O)C6)CC2)ccc1[C@@H]1c2[nH]c3ccccc3c2C[C@@H](C)N1CC(F)F [Compound A29, (S)-3-((S)-3-((1-(4-((1R,3R)-2-(2,2-difluoroethyl)-3-methyl-2,3,4,9-tetrahydro-1H-pyrido[3,4-b]indol-1-yl)-3-methoxyphenyl)piperidin-4-yl)methyl)-8-oxo-1,2,3,4,4a,5,8,10-octahydro-9H-pyrazino[1′,2′:4,5][1,4]oxazino[2,3-f]isoindol-9-yl)piperidine-2,6-dione]
IC50 (CRBN/DDB1): 500 to 5000 nM
IC50 (ERα_LBD(GST)): < 10 nM
DC50 (ER in T47D cells): < 1 nM
T47D ICW Dmax (%) (ER in T47D cells; maximal ER degradation): A (“A”: >=75%)
DC50 (ER in MCF-7 cells): < 1 nM
MCF7 ICW Dmax (%) (ER in MCF-7 cells): B (“B”: >50% and <75%)

C[C@@H]1Cc2c([nH]c3ccccc23)[C@@H](c2cnc(N3CCC(CN4CCC5(CC4)COc4cc6c(cc45)CN(C4CCC(=O)NC4=O)C6=O)CC3)nc2)N1CC(F)(F)CO (stereo partly drawn) [Compound A36, 3-(1′-((1-(5-((1R,3R)-2-(2,2-difluoro-3-hydroxypropyl)-3-methyl-2,3,4,9-tetrahydro-1H-pyrido[3,4-b]indol-1-yl)pyrimidin-2-yl)piperidin-4-yl)methyl)-7-oxo-5,7-dihydro-2H,6H-spiro[furo[2,3-f]isoindole-3,4′-piperidin]-6-yl) piperidine-2,6-dione]
IC50 (CRBN/DDB1): 50 to 500 nM
IC50 (ERα_LBD(GST)): < 10 nM
DC50 (ER in T47D cells): < 1 nM
Dmax (ER in T47D cells; maximal ER degradation): 50 to 75%
DC50 (ER in MCF-7 cells): 1 to 10 nM
Dmax (ER in MCF-7 cells): 25 to 50%

COc1cc(N2CCC(CN3CCN4c5ccc6c(c5OC[C@H]4C3)CN([C@@H]3CCC(=O)NC3=O)C6=O)CC2)ccc1[C@@H]1c2[nH]c3ccccc3c2C[C@@H](C)N1CC(F)F [Compound A37, (R)-3-((R)-7-((1-(4-((1R,3R)-2-(2,2-difluoroethyl)-3-methyl-2,3,4,9-tetrahydro-1H-pyrido[3,4-b]indol-1-yl)-3-methoxyphenyl)piperidin-4-yl)methyl)-1-oxo-1,3,5,5a,6,7,8,9-octahydro-2H-pyrazino[1′,2′:4,5][1,4]oxazino[2,3-e]isoindol-2-yl)piperidine-2,6-dione]
IC50 (CRBN/DDB1): > 5000 nM
IC50 (ERα_LBD(GST)): < 10 nM
DC50 (ER in T47D cells): < 1 nM
Dmax (ER in T47D cells; T47D, maximal ER degradation): > 75%
DC50 (ER in MCF-7 cells): < 1 nM
Dmax (ER in MCF-7 cells): 50 to 75%

COc1cc(N2CCC(CN3CCN4c5ccc6c(c5OC[C@@H]4C3)CN([C@H]3CCC(=O)NC3=O)C6=O)CC2)ccc1[C@@H]1c2[nH]c3ccccc3c2C[C@@H](C)N1CC(F)F [Compound A45, (S)-3-((S)-7-((1-(4-((1R,3R)-2-(2,2-difluoroethyl)-3-methyl-2,3,4,9-tetrahydro-1H-pyrido[3,4-b]indol-1-yl)-3-methoxyphenyl)piperidin-4-yl)methyl)-1-oxo-1,3,5,5a,6,7,8,9-octahydro-2H-pyrazino[1′,2′:4,5][1,4]oxazino[2,3-e]isoindol-2-yl)piperidine-2,6-dione]
IC50 (CRBN/DDB1): > 5000 nM
IC50 (ERα_LBD(GST)): < 10 nM
DC50 (ER in T47D cells): < 1 nM
Dmax (ER in T47D cells; T47D, maximal ER degradation): > 75%
DC50 (ER in MCF-7 cells): < 1 nM
MCF7 ICW Dmax (%) (ER in MCF-7 cells): A (“A”: >=75%)

C[C@@H]1Cc2c([nH]c3ccccc23)[C@@H](c2cnc(N3CCC4(CC3)C[C@@H](CN3CCN5c6ccc(C(=O)N[C@H]7CCC(=O)NC7=O)nc6OC[C@H]5C3)CO4)nc2)N1CC(F)F [Compound A63, (4aR)-3-((8-(5-((1R,3R)-2-(2,2-difluoroethyl)-3-methyl-2,3,4,9-tetrahydro-1H-pyrido[3,4-b]indol-1-yl)pyrimidin-2-yl)-1-oxa-8-azaspiro[4.5]decan-3-yl)methyl)-N—((S)-2,6-dioxopiperidin-3-yl)-1,2,3,4,4a,5-hexahydropyrazino[1,2-d]pyrido[2,3-b][1,4]oxazine-8-carboxamide]
IC50 (CRBN/DDB1): 500 to 5000 nM
IC50 (ERα_LBD(GST)): ≥ 10 nM
DC50 (ER in T47D cells): 1 to 10 nM
Dmax (ER in T47D cells; T47D, maximal ER degradation): 50 to 75%
DC50 (ER in MCF-7 cells): 1 to 10 nM
Dmax (ER in MCF-7 cells): 50 to 75%

C[C@H]1Cc2c([nH]c3ccccc23)[C@H](c2cnc(N3CCC4(CC3)C[C@H](CN3CCN5c6cc7c(cc6OC[C@@H]5C3)C(=O)N([C@@H]3CCC(=O)NC3=O)C7)CO4)nc2)N1CC(F)F [Compound A69, (R)-3-((S)-3-(((R)-8-(5-((1S,3S)-2-(2,2-difluoroethyl)-3-methyl-2,3,4,9-tetrahydro-1H-pyrido[3,4-b]indol-1-yl)pyrimidin-2-yl)-1-oxa-8-azaspiro[4.5]decan-3-yl)methyl)-8-oxo-1,2,3,4,4a,5,8,10-octahydro-9H-pyrazino[1′,2′:4,5][1,4]oxazino[2,3-f]isoindol-9-yl)piperidine-2,6-dione]
IC50 (CRBN/DDB1): 50 to 500 nM
IC50 (ERα_LBD(GST)): ≥ 10 nM
DC50 (ER in T47D cells): < 1 nM
Dmax (ER in T47D cells; T47D, maximal ER degradation): > 75%
DC50 (ER in MCF-7 cells): < 1 nM
Dmax (ER in MCF-7 cells): > 75%
